The values that follow come from PMC4886532, “A highly soluble, non-phototoxic, non-fluorescent blebbistatin derivative” (Scientific Reports, 2016).

The structures appear in SMILES notation. Like-named read-outs stand apart in the source and are kept apart here.

The subject of one series is zebrafish embryos. Put plainly: Lifespan cytotoxicity assay. Particulars: all blebbistatin concentrations. How it is done: Transgenic Tg(−8.0cldnb:lynEGFP)^zf106 (cldnb:EGFP)[25] zebrafish (Danio rerio) were maintained in the animal facility of Eötvös Loránd University. For the experiments investigating the skeletal and heart muscle of zebrafish, 6 dpf embryos were used. For cytotoxicity assays, 2 dpf embryos were dechorionated and placed in the indicated reagent concentrations. Embryos were kept in E3 medium (5 mM NaCl, 0.33 mM MgCl2, 0.33 mM CaCl2 and 0.17 mM KCl).
For the fast escape response experiments, 6 dpf embryos were placed in 50 μl drops of E3 medium on a plastic plate. […] 10 taps were carried out with 1 minute intervals every hour for 4 hours. The tapping force was standardized. The videos were recorded by a Ximea Camera (MQ003MG-CM) at 500 fps for 2 s. Data were analyzed by Flote software version 2.1 and maximal angular velocity parameters of C-start reflex were quantified. For the experiments investigating the effect of the inhibitors on the heart muscle of zebrafish, 6 dpf larvae were embedded in 1% agarose and kept in E3 in the presence of 20 μM concentrations of the inhibitors. […] Embryos were considered to be dead when the whole body became necrotic and the heart stopped beating. Dead embryos were removed from the experiment to prevent contamination. Images of zebrafish were captured with a Zeiss Stereo Lumar V12 microscope using a NeoLumar S 0.8x FWD 80mm objective at 50× zoom.

Series [1] has as its system rabbit skeletal, porcine cardiac and scallop striated myosins, vertebrate non-muscle myosin IIs and Dictyostelium discoideum myosin II. Further details: method as in PMID 15548862. Particulars: read-out: IC50 actin-activated ATPase activity; cited from earlier work.
The test system of the next series is smooth muscle myosin II. Further details: method as in PMID 15548862. Particulars: read-out: IC50 actin activated ATPase activity; cited from earlier work.
The subject of series [2] is rabbit skeletal muscle myosin II. Also on record: method as in PMID 15205456. Particulars: cited from earlier work.
A further series relates to HeLa cells. Further details: method as in PMID 15676022. Particulars: compared to 100% of the control; cited from earlier work.
The target of series [3] is T1, Dictyostelium discoideum myosin II motor domain (DdMD) (Dictyostelium discoideum, UniProt P08799).
T1 construct: Dictyostelium discoideum myosin II motor domain (DdMD)
T1 sequence (P08799 86-759 limits assumed): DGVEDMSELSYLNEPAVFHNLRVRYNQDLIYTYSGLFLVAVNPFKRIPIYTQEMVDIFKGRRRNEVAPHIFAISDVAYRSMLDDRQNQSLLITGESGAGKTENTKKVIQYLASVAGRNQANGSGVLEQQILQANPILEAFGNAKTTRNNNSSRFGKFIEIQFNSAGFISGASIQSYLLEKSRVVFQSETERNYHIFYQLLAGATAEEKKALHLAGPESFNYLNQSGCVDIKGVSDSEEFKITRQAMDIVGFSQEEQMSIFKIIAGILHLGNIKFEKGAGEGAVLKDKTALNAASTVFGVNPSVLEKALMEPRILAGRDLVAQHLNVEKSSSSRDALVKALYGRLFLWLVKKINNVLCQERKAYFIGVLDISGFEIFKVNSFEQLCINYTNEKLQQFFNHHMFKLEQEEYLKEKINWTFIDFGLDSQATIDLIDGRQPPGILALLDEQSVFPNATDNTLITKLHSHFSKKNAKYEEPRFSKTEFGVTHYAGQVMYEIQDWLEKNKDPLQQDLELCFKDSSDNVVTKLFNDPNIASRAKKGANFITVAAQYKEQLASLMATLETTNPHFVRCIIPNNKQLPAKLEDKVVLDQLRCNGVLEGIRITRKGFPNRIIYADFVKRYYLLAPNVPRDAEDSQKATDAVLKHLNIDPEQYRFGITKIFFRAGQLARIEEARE
The series is described as follows: biochemical. Particulars: for IC50: 20 °C. How it is done:
Myosin and actin together with the indicated concentration of the inhibitor were pre-incubated for 5 minutes at room temperature and the measurements were initiated with 1 mM ATP. Data were corrected for background ATPase activity of actin. G-actin was prepared accordingly from rabbit skeletal muscle[24] and polymerized by 2 mM MgCl2 for 1 hour at room temperature. Measurements were performed in low salt buffer containing 5 mM HEPES, 2 mM MgCl2, 0.1 mM EGTA and 2 mM DTT at pH 7.2 or assay buffer containing 20 mM HEPES, 40 mM NaCl, 4 mM MgCl2 at pH 7.3 for basal ATPase activity measurements with DdMD.

For series [4], the system named is HeLa Kyoto H2B-mCherry eGFP-α-tubulin cells. The series is described as follows: Cell growth assay (cell number, cytokinesis).
Protocol: Cells incubated in different concentrations of the inhibitors were counted on each day for three days.

Regarding `Cc1ccc2c(c1)C(=O)C1(O)CCN(c3ccccc3)C1=N2` (stereo not drawn) [blebbistatin], the “Time at which all embryos died” value with zebrafish embryos turned out to be 69 h. Further, the IC50 in series [1] was 0.5 to 5 µM; in the series on smooth muscle myosin II, 79.6 µM. The on-rate constant kon in series [2] is 3400 M⁻¹ s⁻¹. Besides, the “Motility of HeLa cells on 2D surfaces” value in the series on HeLa cells is ~ 140%.
Regarding `Cc1ccc2c(c1)C(=O)[C@]1(O)CCN(c3ccc(N)cc3)C1=N2` [para-aminoblebbistatin], the “Maximal inhibition of actin activated ATPase of DdMD” value in series [3] is 80%. The “Maximal inhibition of basal ATPase of DdMD” value in series [3] is 90%. The IC50 in series [3] (15 μM actin, read-out: IC50 actin activated ATPase activity of DdMD) worked out at 6.7 ± 1.9 µM; in series [3] (read-out: IC50 basal ATPase of DdMD), 6.6 ± 2 µM; in series [4] (Homo sapiens, HeLa Kyoto, 72 h, read-out: IC50 of the inhibition of cell proliferation) it was 17.8 ± 4.7 µM. Moreover, the “Fold higher IC50 of AmBleb on DdMD” value in series [3] (comparator not named (matches actin activated ratio to Bleb)) is on record as 1.7 times. The “Fold weaker IC50 than blebbistatin's (cell proliferation)” value in series [4] (day 3) is given as 2–3 times.
